Assay results taken from patent US20230389548A1, “MIXTURES OF PYRIMIDINES AS HERBICIDAL COMPOSITIONS” (SYNGENTA CROP PROTECTION AG, priority 2020, published 2023).

Columns and labels:
Assay in all cases: Post-emergence glasshouse spray test, visual percentage phytotoxicity after 13 days
Assay type in all cases: in vivo
[1] = tested on: Chenopodium album (CHEAL); conditions: for CHEAL percentage phytotoxicity: B1; for Observed phytotoxicity CHEAL: B2.1.6
Description: (§1) Seeds of Setaria faberi (SETFA), Echinochloa crus-galli (ECHCG), Digitaria sanguinalis (DIGSA), Lolium perenne (LOLPE), Alopecurus myosuroides (ALOMY), Chenopodium album (CHEAL), Ipomoea hederacea (IPOHE), Stellaria media (STEME), Abutilon threophrasti (ABUTH), Amaranthus retroflexus (AMARE) were sown in standard sterilised soil in pots. After cultivation for 8 days under controlled conditions in a glasshouse (at 24/19° C., day/night; 16 hours light; no humidity control), the plants were sprayed at 500 l/Ha with an aqueous spray solution derived from the formulation of the technical active ingredients in a small amount of acetone and a solvent and emulsifier mixture referred to as IF50 (11.12% Emulsogen EL360™+44.44% N-methylpyrrolidone+44.44% Dowanol DPM glycol ether), to create a 50 g/l solution which was then diluted using 0.2% Genapol XO80 (CAS Number: 9043-30-5) as diluent to give the desired final dose of test compound.
(§2) Where active ingredients were applied as mixtures, aqueous spray solutions were prepared as above, containing both active ingredients.
(§3) The test plants were then grown under controlled conditions in a glasshouse (at 24/18° C., day/night; 15 hours light; 50% humidity) and watered twice daily. After 13 days, the test was evaluated visually for percentage phytotoxicity to the plants (where 100=total damage to plant; 0=no damage to plant; and NC=not captured) when compared to control untreated plants. Two to four replicates were applied for each treatment in a randomised block test design.
(§4) 22., E=X+Y−(X*Y/100), where
(§5) X=average percent phytotoxicity of herbicide A when applied at a certain rate Y=average percent phytotoxicity using herbicide B when applied at a certain rate E=the expected effect of the mixture of herbicides A and B as calculated from the Colby formula.

[2] = tested on: Digitaria sanguinalis (DIGSA); conditions: for DIGSA percentage phytotoxicity: B1; for Observed phytotoxicity DIGSA: B2.6.2
Description: as §1, §2, §3, §4, §5

Setaria faberi (SETFA) = conditions: for SETFA percentage phytotoxicity: B1
Description: as §1, §2, §3, §4, §5

Lolium perenne (LOLPE) = conditions: for LOLPE percentage phytotoxicity: B1
Description: as §1, §2, §3, §4, §5

[3] = tested on: Echinochloa crus-galli (ECHCG); conditions: for ECHCG percentage phytotoxicity: B1; for Observed phytotoxicity ECHCG: B2.1.2
Description: as §1, §2, §3, §4, §5

Stellaria media (STEME) = conditions: for STEME percentage phytotoxicity: B1
Description: as §1, §2, §3, §4, §5

[4] = tested on: Ipomoea hederacea (IPOHE); conditions: for IPOHE percentage phytotoxicity: B1
Description: as §1, §2, §3, §4, §5

[5] = tested on: Amaranthus retroflexus (AMARE); conditions: for AMARE percentage phytotoxicity: B1
Description: as §1, §2, §3, §4, §5

[6] = tested on: Abutilon threophrasti (ABUTH); conditions: for ABUTH percentage phytotoxicity: B1; for Observed phytotoxicity ABUTH: B2.1.7
Description: as §1, §2, §3, §4, §5

[7] = tested on: Alopecurus myosuroides (ALOMY); conditions: B1
Description: as §1, §2, §3, §4, §5

SMILES: CN1C[C@H](c2cccc(C(F)(F)F)c2)[C@@H](C(=O)Nc2ccccc2F)C1=O [B-III]
- CHEAL percentage phytotoxicity ([1]; 3.125 g/ha post-emergence): 6%
- CHEAL percentage phytotoxicity ([1]; 6.25 g/ha post-emergence): 10%
- CHEAL percentage phytotoxicity ([1]; 12.5 g/ha post-emergence): 14%
- CHEAL percentage phytotoxicity ([1]; 25 g/ha post-emergence): 44%
- CHEAL percentage phytotoxicity ([1]; 50 g/ha post-emergence): 56%
- Observed phytotoxicity CHEAL ([1]; 6.25 g/ha post-emergence): 10%
- Observed phytotoxicity CHEAL ([1]; 12.5 g/ha post-emergence): 14%
- DIGSA percentage phytotoxicity ([2]; 3.125 g/ha post-emergence): 72%
- DIGSA percentage phytotoxicity ([2]; 6.25 g/ha post-emergence): 74%
- DIGSA percentage phytotoxicity ([2]; 12.5 g/ha post-emergence): 78%
- DIGSA percentage phytotoxicity ([2]; 25 g/ha post-emergence): 79%
- DIGSA percentage phytotoxicity ([2]; 50 g/ha post-emergence): 80%
- SETFA percentage phytotoxicity (Setaria faberi (SETFA); 3.125 g/ha post-emergence): 66%
- SETFA percentage phytotoxicity (Setaria faberi (SETFA); 6.25 g/ha post-emergence): 68%
- SETFA percentage phytotoxicity (Setaria faberi (SETFA); 12.5 g/ha post-emergence): 70%
- SETFA percentage phytotoxicity (Setaria faberi (SETFA); 25 g/ha post-emergence): 74%
- SETFA percentage phytotoxicity (Setaria faberi (SETFA); 50 g/ha post-emergence): 73%
- Observed phytotoxicity SETFA (Setaria faberi (SETFA); B2.1.3, 25 g/ha post-emergence): 74%
- LOLPE percentage phytotoxicity (Lolium perenne (LOLPE); 3.125 g/ha post-emergence): 30%
- LOLPE percentage phytotoxicity (Lolium perenne (LOLPE); 6.25 g/ha post-emergence): 43%
- LOLPE percentage phytotoxicity (Lolium perenne (LOLPE); 12.5 g/ha post-emergence): 55%
- LOLPE percentage phytotoxicity (Lolium perenne (LOLPE); 25 g/ha post-emergence): 70%
- LOLPE percentage phytotoxicity (Lolium perenne (LOLPE); 50 g/ha post-emergence): 75%
- Observed phytotoxicity LOLPE (Lolium perenne (LOLPE); B2.1.1, 6.25 g/ha post-emergence): 43%
- Observed phytotoxicity LOLPE (Lolium perenne (LOLPE); B2.1.1, 12.5 g/ha post-emergence): 55%
- ECHCG percentage phytotoxicity ([3]; 3.125 g/ha post-emergence): 70%
- ECHCG percentage phytotoxicity ([3]; 6.25 g/ha post-emergence): 70%
- ECHCG percentage phytotoxicity ([3]; 12.5 g/ha post-emergence): 73%
- ECHCG percentage phytotoxicity ([3]; 25 g/ha post-emergence): 73%
- ECHCG percentage phytotoxicity ([3]; 50 g/ha post-emergence): 75%
- Observed phytotoxicity ECHCG ([3]; 12.5 g/ha post-emergence): 73%
- Observed phytotoxicity ECHCG ([3]; 50 g/ha post-emergence): 75%
- STEME percentage phytotoxicity (Stellaria media (STEME); 3.125 g/ha post-emergence): 13%
- STEME percentage phytotoxicity (Stellaria media (STEME); 6.25 g/ha post-emergence): 21%
- STEME percentage phytotoxicity (Stellaria media (STEME); 12.5 g/ha post-emergence): 14%
- STEME percentage phytotoxicity (Stellaria media (STEME); 25 g/ha post-emergence): 46%
- STEME percentage phytotoxicity (Stellaria media (STEME); 50 g/ha post-emergence): 71%
- Observed phytotoxicity STEME (Stellaria media (STEME); B2.1.4, 6.25 g/ha post-emergence): 21%
- Observed phytotoxicity STEME (Stellaria media (STEME); B2.1.4, 12.5 g/ha post-emergence): 14%
- IPOHE percentage phytotoxicity ([4]; 3.125 g/ha post-emergence): 9%
- IPOHE percentage phytotoxicity ([4]; 6.25 g/ha post-emergence): 11%
- IPOHE percentage phytotoxicity ([4]; 12.5 g/ha post-emergence): 15%
- IPOHE percentage phytotoxicity ([4]; 25 g/ha post-emergence): 24%
- IPOHE percentage phytotoxicity ([4]; 50 g/ha post-emergence): 28%
- AMARE percentage phytotoxicity ([5]; 3.125 g/ha post-emergence): 4%
- AMARE percentage phytotoxicity ([5]; 6.25 g/ha post-emergence): 6%
- AMARE percentage phytotoxicity ([5]; 12.5 g/ha post-emergence): 10%
- AMARE percentage phytotoxicity ([5]; 25 g/ha post-emergence): 21%
- AMARE percentage phytotoxicity ([5]; 50 g/ha post-emergence): 31%
- Observed phytotoxicity AMARE ([5]; B2.1.5, 6.25 g/ha post-emergence): 6%
- ABUTH percentage phytotoxicity ([6]; 3.125 g/ha post-emergence): 10%
- ABUTH percentage phytotoxicity ([6]; 6.25 g/ha post-emergence): 4%
- ABUTH percentage phytotoxicity ([6]; 12.5 g/ha post-emergence): 3%
- ABUTH percentage phytotoxicity ([6]; 25 g/ha post-emergence): 19%
- ABUTH percentage phytotoxicity ([6]; 50 g/ha post-emergence): 18%
- Observed phytotoxicity ABUTH ([6]; 6.25 g/ha post-emergence): 4%
- Observed phytotoxicity ABUTH ([6]; 12.5 g/ha post-emergence): 3%
- Observed phytotoxicity ABUTH ([6]; 25 g/ha post-emergence): 19%
- Observed phytotoxicity ABUTH ([6]; 50 g/ha post-emergence): 18%

SMILES: Nc1c(F)c(-c2ccc3cc[nH]c3c2F)nc(C(=O)O)c1Cl [B-VI]
- CHEAL percentage phytotoxicity ([1]; 0.625 g/ha post-emergence): 58%
- CHEAL percentage phytotoxicity ([1]; 1.25 g/ha post-emergence): 73%
- CHEAL percentage phytotoxicity ([1]; 2.5 g/ha post-emergence): 75%
- CHEAL percentage phytotoxicity ([1]; 5 g/ha post-emergence): 94%
- CHEAL percentage phytotoxicity ([1]; 10 g/ha post-emergence): 84%
- DIGSA percentage phytotoxicity ([2]; 0.625 g/ha post-emergence): 0%
- DIGSA percentage phytotoxicity ([2]; 1.25 g/ha post-emergence): 0%
- DIGSA percentage phytotoxicity ([2]; 2.5 g/ha post-emergence): 0%
- DIGSA percentage phytotoxicity ([2]; 5 g/ha post-emergence): 8%
- DIGSA percentage phytotoxicity ([2]; 10 g/ha post-emergence): 43%
- Observed phytotoxicity DIGSA ([2]; 0.625 g/ha post-emergence): 0%
- Observed phytotoxicity DIGSA ([2]; 1.25 g/ha post-emergence): 0%
- Observed phytotoxicity DIGSA ([2]; 5 g/ha post-emergence): 8%
- ALOMY percentage phytotoxicity ([7]; 0.625 g/ha post-emergence): 0%
- ALOMY percentage phytotoxicity ([7]; 1.25 g/ha post-emergence): 0%
- ALOMY percentage phytotoxicity ([7]; 2.5 g/ha post-emergence): 0%
- ALOMY percentage phytotoxicity ([7]; 5 g/ha post-emergence): 33%
- ALOMY percentage phytotoxicity ([7]; 10 g/ha post-emergence): 30%
- SETFA percentage phytotoxicity (Setaria faberi (SETFA); 0.625 g/ha post-emergence): 0%
- SETFA percentage phytotoxicity (Setaria faberi (SETFA); 1.25 g/ha post-emergence): 0%
- SETFA percentage phytotoxicity (Setaria faberi (SETFA); 2.5 g/ha post-emergence): 0%
- SETFA percentage phytotoxicity (Setaria faberi (SETFA); 5 g/ha post-emergence): 48%
- SETFA percentage phytotoxicity (Setaria faberi (SETFA); 10 g/ha post-emergence): 70%
- Observed phytotoxicity SETFA (Setaria faberi (SETFA); B2.6.1, 0.625 g/ha post-emergence): 0%
- Observed phytotoxicity SETFA (Setaria faberi (SETFA); B2.6.1, 1.25 g/ha post-emergence): 0%
- LOLPE percentage phytotoxicity (Lolium perenne (LOLPE); 0.625 g/ha post-emergence): 0%
- LOLPE percentage phytotoxicity (Lolium perenne (LOLPE); 1.25 g/ha post-emergence): 0%
- LOLPE percentage phytotoxicity (Lolium perenne (LOLPE); 2.5 g/ha post-emergence): 0%
- LOLPE percentage phytotoxicity (Lolium perenne (LOLPE); 5 g/ha post-emergence): 8%
- LOLPE percentage phytotoxicity (Lolium perenne (LOLPE); 10 g/ha post-emergence): 8%
- Observed phytotoxicity LOLPE (Lolium perenne (LOLPE); B2.6.3, 5 g/ha post-emergence): 8%
- STEME percentage phytotoxicity (Stellaria media (STEME); 0.625 g/ha post-emergence): 78%
- STEME percentage phytotoxicity (Stellaria media (STEME); 1.25 g/ha post-emergence): 50%
- STEME percentage phytotoxicity (Stellaria media (STEME); 2.5 g/ha post-emergence): 65%
- STEME percentage phytotoxicity (Stellaria media (STEME); 5 g/ha post-emergence): 98%
- STEME percentage phytotoxicity (Stellaria media (STEME); 10 g/ha post-emergence): 90%
- Observed phytotoxicity STEME (Stellaria media (STEME); B2.6.5, 1.25 g/ha post-emergence): 50%
- IPOHE percentage phytotoxicity ([4]; 0.625 g/ha post-emergence): 13%
- IPOHE percentage phytotoxicity ([4]; 1.25 g/ha post-emergence): 35%
- IPOHE percentage phytotoxicity ([4]; 2.5 g/ha post-emergence): 38%
- IPOHE percentage phytotoxicity ([4]; 5 g/ha post-emergence): 48%
- IPOHE percentage phytotoxicity ([4]; 10 g/ha post-emergence): 50%
- Observed phytotoxicity IPOHE ([4]; B2.6.4, 2.5 g/ha post-emergence): 38%
- AMARE percentage phytotoxicity ([5]; 0.625 g/ha post-emergence): 58%
- AMARE percentage phytotoxicity ([5]; 1.25 g/ha post-emergence): 65%
- AMARE percentage phytotoxicity ([5]; 2.5 g/ha post-emergence): 73%
- AMARE percentage phytotoxicity ([5]; 5 g/ha post-emergence): 95%
- AMARE percentage phytotoxicity ([5]; 10 g/ha post-emergence): 90%
- ABUTH percentage phytotoxicity ([6]; 0.625 g/ha post-emergence): 38%
- ABUTH percentage phytotoxicity ([6]; 1.25 g/ha post-emergence): 55%
- ABUTH percentage phytotoxicity ([6]; 2.5 g/ha post-emergence): 73%
- ABUTH percentage phytotoxicity ([6]; 5 g/ha post-emergence): 78%
- ABUTH percentage phytotoxicity ([6]; 10 g/ha post-emergence): 78%
